Experimental data published in US20160215348A1, “GENE EXPRESSION BIOMARKERS AND THEIR USE FOR DIAGNOSTIC AND PROGNOSTIC APPLICATION IN PATIENTS POTENTIALLY IN NEED OF HDAC INHIBITOR TREATMENT” (4SC AG, priority 2013, published 2016).

Key:
[1] = test system: TBP; test: Gene expression in peripheral blood of healthy donors treated ex vivo; type: cell-based, human; details: standardized to 0 h
Description: (§1) Hatched columns relate to blood, black columns relate to HepG2 cells, white boxes relate to HT 29 cells. Values are standardized to the value at 0 h.
(§2) Samples were obtained and gene expressions were determined with the methods as described herein below. The results are shown in below table 3 and FIGS. 2 and 3
(§3) The above values represent a mean value which was determined on the basis of 2 biological replicates, for each of which 3 technical replicates were prepared. […] The level of gene expression determined in peripheral blood samples can be correlated with a certain level of activity of HDAC in the diseased cells, e.g. by applying an appropriate conversion factor or conversion table, which may be determined for each specific disease, and/or patient group.
(§4) The High-Capacity cDNA Reverse Transcription Kit (Applied Biosystems) was used for reverse transcription of total RNA into single stranded cDNA with the aid of random hexamer primers according to the manufacturer's instructions. Briefly, for the reaction mix total RNA was mixed with random primers in excess, 4 mM dNTP Mix, 2.5 U/reaction, reverse transcriptase and nuclease free water. The reverse transcription took place in a thermal cycler under the following conditions: 25° C. for 10 min, 37° C. for 120 min, 85° C. for 5 min, followed by 4° C. for cooling down the reaction. The reverse transcription can be done in principle as well with other reverse transcriptases, primers and temperature protocols. Whenever possible, 250 ng total RNA were reverse transcribed if not available, lower amounts were used.
(§5) Custom TaqMan® Arrays (Applied Biosystems) in Format 16 were designed for the gene expression analysis of biomarkers of the present invention and housekeeping genes as outlined in table 4. These arrays allow for qPCR analysis of 8 samples per card. Of course, all reactions can be done as well by conventional qPCR analysis with specific primers.

[2] = test system: HIST2H4A/B; test: as above; type: cell-based, human; details: standardized to 0 h
Description: as §1, §2, §3, §4, §5

[3] = test system: ZFP64; test: as above; type: cell-based, human; details: standardized to 0 h
Description: as §1, §2, §3, §4, §5

[4] = test system: KDELC2; test: as above; type: cell-based, human; details: standardized to 0 h
Description: as §1, §2, §3, §4, §5

[5] = test system: GAPDH; test: as above; type: cell-based, human; details: standardized to 0 h
Description: as §1, §2, §3, §4, §5

[6] = test system: CCDC43; test: as above; type: cell-based, human; details: standardized to 0 h
Description: as §1, §2, §3, §4, §5

[7] = test system: MICALL1; test: as above; type: cell-based, human; details: standardized to 0 h
Description: as §1, §2, §3, §4, §5

[8] = test system: 18S; test: as above; type: cell-based, human; details: standardized to 0 h
Description: as §1, §2, §3, §4, §5

[9] = test system: DPP3; test: as above; type: cell-based, human; details: standardized to 0 h
Description: as §1, §2, §3, §4, §5

[10] = test system: HDAC; test: Cellular HDAC enzyme activity in patients' whole blood (Boc-K(Ac)-AMC), inhibition vs pre-dose; type: in vivo, human; details: SAPHIRE
Description: Samples were obtained and gene expressions were determined with the methods as described herein below. Whole blood was incubated for 2 h at 37° C. with fluorescent HDAC substrate Boc-K(Ac)-AMC. After the lysis of erythrocytes remaining cells were stored at −80° C. HDAC activity was determined by fluorimetric analysis using a FLUOstar OPTIMA plate reader, where cells were incubated with a defined developer reagent (containing trypsin and lysis buffer) which leads to cell lysis and generation of a fluorophore from the deacetylated substrate. Finally inhibition of HDAC activity compared to pre-dose levels was calculated.
• Labelled 15 ml tubes (e.g. PP tubes, e.g. Falcon® tubes) • Labelled 2 ml tubes (e.g. PP tubes) • Erythrocyte Lysis buffer (Qiagen 79217) (stored at RT until use) • 40 mM Boc-K(Ac) AMC Stock in DMSO (Bachem: 1-1875) (stored at −80° C. until use)
• 1) Add 1 ml citrate blood into a 15 ml labelled tube. • 2) Add 5 μl 40 mM Boc-K(Ac) AMC to 1 ml citrate blood (final concentration: 200 μM Boc-K(Ac) AMC). • 3) Incubate for 2 h in an incubator (37° C.). • 4) Add 5 fold volume (5 ml) of 4° C. cold erythrocyte lysis buffer (EL buffer, Qiagen 79217). • 5) Mix briefly on a shaker. • 6) Incubate on ice for at least 15 min; mix two times in between on a plate shaker. • 7) Add 7 ml of 4° C. […]

[11] = test system: ZFP64; test: ZFP64 fold change in HepG2, whole blood and PBMCs of a healthy donor (FIG. 4d); type: cell-based, human; details: HepG2, whole blood, PBMC; resminostat 5 μM (combination: + sorafenib 5 μM); vs DMSO control
Description: For comparison reasons, the siRNA experiment (ZFP64 knockdown) on HepG2 cells is shown. The samples are compared to a DMSO control and the fold change is determined with the exception of the siRNA samples, which are compared to the resminostat sample.
To determine RNA expression levels of ZFP64 in different cancer cell lines and PBMC, the cell membranes were chemically disrupted with a buffer containing guanidine isothiocycanate, which lyses the cells and supports the binding of RNA to a silica membrane and RNA was extracted via a filter-based spin column.

[12] = Dose escalation 100-800 mg in cancer patients, dose-limiting toxicity; type: in vivo, human; details: highest dose group (800 mg); one patient within the first 3 patients
Description: HDAC enzyme activity, H4 Histone acetylation and gene expression of a group of genes were measured in the dose groups 100 mg, 200 mg, 400 mg, 600 mg and 800 mg. Each group consisted of 3 patients with different types of tumors. The highest dose group consisted of 6 patients due to a dose-limiting toxicity [DLT] […] The treatment cycles were as detailed for the SAPHIRE, SHELTER and SHORE clinical trials described herein below.

Question: What does the source list for `CN(C)Cc1ccc(S(=O)(=O)n2ccc(/C=C/C(=O)NO)c2)cc1` [resminostat, (E)-3-(1-(4-((dimethylamino)methyl)phenylsulfonyl)-1H-pyrrol-3-yl)-N-hydroxyacrylamide]?
Answer: Expression level, TBP (housekeeping gene) ([1]; 2 h): 1.03; Expression level, TBP (housekeeping gene) ([1]; 5 h): 1.11; Expression level, HIST2H4A/B ([2]; 2 h): 2.59; Expression level, HIST2H4A/B ([2]; 5 h): 4.11; Expression level, ZFP64 ([3]; 2 h): 0.24; Expression level, ZFP64 ([3]; 5 h): 0.15; Expression level, KDELC2 ([4]; 2 h): 0.47; Expression level, KDELC2 ([4]; 5 h): 0.07; Expression level, GAPDH (housekeeping gene) ([5]; 2 h): 1.16; Expression level, GAPDH (housekeeping gene) ([5]; 5 h): 1.38; Expression level, CCDC43 ([6]; 2 h): 0.29; Expression level, CCDC43 ([6]; 5 h): 0.35; Expression level, MICALL1 ([7]; 2 h): 0.30; Expression level, MICALL1 ([7]; 5 h): 0.10; Expression level, 18s (housekeeping gene) ([8]; 2 h): 0.83; Expression level, 18s (housekeeping gene) ([8]; 5 h): 0.66; Expression level, DPP3 ([9]; 2 h): 0.57; Expression level, DPP3 ([9]; 5 h): 0.29; Inhibition of HDAC enzyme activity (median) ([10]; 2 h post-dose, both dose groups (600 mg, 800 mg), vs pre-dose): ≤ 93%; Inhibition of HDAC enzyme activity ([10]; day 8, 800 mg dose group, wide range of individual values): up to 41%; Regulation of ZFP64, fold change (FIG. 4d) [11]: down-regulation; Dose-limiting toxicity [DLT] [12]: fatigue and nausea grade 3
